Results taken from patent US20250177359A1, “COMPOUNDS FOR USE IN THE TREATMENT OF CANCER AND INFLAMMATORY CONDITIONS” (priority 2022, published 2025).
Like-named read-outs stand apart in the source and are kept apart here.

What was measured:
[1] = molecular target: T1, PARP15 (Homo sapiens, UniProt Q460N3); assay: biochemical
T1 sequence (Q460N3 1-678): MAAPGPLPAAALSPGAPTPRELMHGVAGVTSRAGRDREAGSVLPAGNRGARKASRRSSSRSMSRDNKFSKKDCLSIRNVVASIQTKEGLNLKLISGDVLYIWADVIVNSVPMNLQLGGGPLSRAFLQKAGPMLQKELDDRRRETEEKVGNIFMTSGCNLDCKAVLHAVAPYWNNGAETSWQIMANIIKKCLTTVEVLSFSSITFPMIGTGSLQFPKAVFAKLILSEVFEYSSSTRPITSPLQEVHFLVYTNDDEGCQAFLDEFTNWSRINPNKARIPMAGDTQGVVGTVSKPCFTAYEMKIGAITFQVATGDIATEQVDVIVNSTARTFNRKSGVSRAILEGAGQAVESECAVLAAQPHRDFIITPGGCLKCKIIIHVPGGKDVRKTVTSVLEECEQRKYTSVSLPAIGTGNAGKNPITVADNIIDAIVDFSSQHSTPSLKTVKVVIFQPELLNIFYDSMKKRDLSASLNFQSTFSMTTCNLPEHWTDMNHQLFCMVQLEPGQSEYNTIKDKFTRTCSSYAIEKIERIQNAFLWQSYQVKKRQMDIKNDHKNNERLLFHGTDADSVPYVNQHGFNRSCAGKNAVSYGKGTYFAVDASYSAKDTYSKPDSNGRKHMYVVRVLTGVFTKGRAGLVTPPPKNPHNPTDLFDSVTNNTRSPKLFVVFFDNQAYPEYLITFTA
Method: (§1) All starting materials, reagents, and solvents were purchased from common commercial suppliers and were used as such without further purification. […] Organic solutions were dried over anhydrous Na2SO4 and concentrated with rotary evaporator at low pressure. All the reactions were routinely checked by thin-layer chromatography (TLC) on silica gel 60F254 (Merck) and visualized by using UV and iodine. Flash chromatography separations were carried out on Merck silica gel 60 (mesh 230-400) or by using automated Buchi Reveleris X2-UV with column FP Ecoflex Si 12 g. Yields were of purified products and were not optimized. ^1HNMR spectra were recorded at 400 MHz (Bruker Avance DRX-400), while ^13CNMR spectra were recorded at 101 MHz (Bruker Avance DRX-400). Chemical shifts are given in ppm (δ) relative to TMS. […] Mating constant (J) are reported in Hz. The purity of the tested compounds was evaluated by HPLC analysis using Jasco LC-4000 instrument equipped with a UV-Visible Diode Array Jasco-MD4015 (Jasco Corporation, Tokyo, Japan), and XTerra MS C18 column, 5 μm×4.6 mm×150 mm (Waters Corporation, Massachusetts, USA). Chromatograms were analyzed by ChromNAV2.0 Chromatography Data System software. […] The peak retention time (ret. time) is given in minutes. […] 1-Isobutoxy-4-methoxy-2-nitrobenzene (113). Isobutyl alcohol (0.6 mL, 6.43 mmol) was added, under nitrogen atmosphere at 0° C., to a suspension of NaH (0.26 g, 6.43 mmol) in dry DMF. After 15 minutes, 1-fluoro-4-methoxy-2-nitrobenzene 112 (1 g, 5.84 mmol) was also added and the reaction mixture was stirred at 80° C. for 4 h. […] (2-Isobutoxy-5-methoxyphenyl)amine (114). Zn (1.57 g, 24 mmol) and NH4C1 (2.45 g, 40 mmol) were added to a solution of 113 (0.46 g, 2 mmol) in acetone/H2O (50 mL, ratio 5:1). The reaction mixture was stirred at 60° C. for 3 h and, then, it was filtered over celite. […] N-(2,5-diethoxyphenyl)thiourea (55). […] N-(2-isobutoxy-5-methoxyphenyl)thiourea (115). […] A solution of Br2 (0.2 mL, 3.3 mmol) in CHCl3 (5 mL) was slowly added to a suspension of 45 (0.6 g, 3.3 mmol) in CHCl3 (13 mL), at 0° C. The reaction mixture was stirred at r.t. for 4 h and, then, a 10% solution of Na2SO3 in water was added to the mixture. […] 4,7-Diethoxy-1,3-benzothiazol-2-amine (66). […] 4-Isobutoxy-7-methoxy-1,3-benzothiazol-2-amine (116). […] Hydrazine hydrate (0.23 mL, 4.77 mmol) and CH3COOH (0.12 mL, 2.1 mmol) were added to a suspension of 56 (0.29 g, 1.59 mmol) in ethylene glycol (8 mL), and the reaction mixture was stirred for 24 h at 125° C. […] 6-Ethyl-2-hydrazino-1,3-benzothiazole (69). […] 6-Ispropyl-2-hydrazino-1,3-benzothiazole (70). […] 2-Hydrazino-4,7-dimethoxy-1,3-benzothiazole (73). […] 2-Hydrazino-5,7-dimethoxy-1,3-benzothiazole (75). […] 2-Hydrazino-4,7-Diethoxy-1,3-benzothiazole (77). […] 2-Hydrazino-5-methyl[1,3]thiazolo[5,4-b]pyridine (100). […] A solution of 67 (0.13 g, 0.65 mmol) in formic acid (5 mL) was refluxed for 10 h. The reaction mixture was then poured into ice/water and the pH was neutralized using a saturated solution of NaHCO3.

[2] = molecular target: T2, PARP10 (Homo sapiens, UniProt Q53GL7); assay: Activity assay measuring NAD+ consumption, PARP10 (Tables 1-3); format: biochemical
T2 construct: made in house
T2 sequence (Q53GL7 1-1025): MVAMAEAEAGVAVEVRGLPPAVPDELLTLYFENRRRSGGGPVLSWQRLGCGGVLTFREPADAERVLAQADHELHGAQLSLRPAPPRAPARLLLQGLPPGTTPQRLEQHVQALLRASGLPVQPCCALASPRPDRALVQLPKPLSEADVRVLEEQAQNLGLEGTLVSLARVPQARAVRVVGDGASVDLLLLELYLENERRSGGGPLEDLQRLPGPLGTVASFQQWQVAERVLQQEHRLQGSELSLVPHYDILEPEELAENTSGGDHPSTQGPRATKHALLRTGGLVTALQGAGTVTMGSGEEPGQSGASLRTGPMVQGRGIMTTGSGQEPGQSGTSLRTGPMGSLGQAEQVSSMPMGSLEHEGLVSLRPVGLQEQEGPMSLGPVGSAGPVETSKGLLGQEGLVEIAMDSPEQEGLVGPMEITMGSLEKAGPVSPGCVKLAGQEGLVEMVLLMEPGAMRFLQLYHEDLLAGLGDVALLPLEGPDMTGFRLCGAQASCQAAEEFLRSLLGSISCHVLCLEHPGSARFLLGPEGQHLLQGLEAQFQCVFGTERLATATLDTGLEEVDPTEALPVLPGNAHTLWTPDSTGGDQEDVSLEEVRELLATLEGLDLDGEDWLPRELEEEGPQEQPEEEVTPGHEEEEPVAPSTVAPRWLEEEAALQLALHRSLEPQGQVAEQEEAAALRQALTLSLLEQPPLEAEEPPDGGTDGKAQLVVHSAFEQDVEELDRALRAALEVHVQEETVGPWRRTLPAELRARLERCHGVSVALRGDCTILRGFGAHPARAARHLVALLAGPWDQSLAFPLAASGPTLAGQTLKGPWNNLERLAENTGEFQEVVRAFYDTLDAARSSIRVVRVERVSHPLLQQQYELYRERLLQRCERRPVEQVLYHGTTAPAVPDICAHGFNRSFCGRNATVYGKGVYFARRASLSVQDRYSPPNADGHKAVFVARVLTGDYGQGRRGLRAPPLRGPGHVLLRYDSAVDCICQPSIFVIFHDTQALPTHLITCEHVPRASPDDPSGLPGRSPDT

[3] = molecular target: T3, PARP2 (Homo sapiens, UniProt Q9UGN5); assay: biochemical; format: biochemical; conditions: NAD+ consumption assay; > less than 50% inhibition at highest concentration, >> no inhibition
T3 construct: made in house
T3 sequence (Q9UGN5 whole entry): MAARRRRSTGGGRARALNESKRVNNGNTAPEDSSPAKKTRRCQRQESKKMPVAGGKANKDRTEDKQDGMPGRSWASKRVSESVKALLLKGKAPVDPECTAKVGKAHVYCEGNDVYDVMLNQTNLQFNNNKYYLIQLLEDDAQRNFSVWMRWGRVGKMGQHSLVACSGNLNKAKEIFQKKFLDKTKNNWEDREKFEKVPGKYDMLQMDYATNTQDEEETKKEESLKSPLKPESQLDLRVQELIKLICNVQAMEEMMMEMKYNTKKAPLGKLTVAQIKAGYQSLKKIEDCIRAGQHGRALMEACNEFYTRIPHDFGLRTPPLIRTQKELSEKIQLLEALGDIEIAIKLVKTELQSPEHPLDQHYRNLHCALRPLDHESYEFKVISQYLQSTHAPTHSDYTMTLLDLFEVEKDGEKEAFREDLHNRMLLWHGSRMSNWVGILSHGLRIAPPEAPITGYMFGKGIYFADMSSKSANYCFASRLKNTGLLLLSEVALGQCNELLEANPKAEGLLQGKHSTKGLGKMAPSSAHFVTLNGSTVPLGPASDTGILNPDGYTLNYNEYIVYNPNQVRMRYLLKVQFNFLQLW
Method: as §1

[4] = Toxicity using the WST-1 assay
[5] = molecular target: T4, TNKS2 (Homo sapiens, UniProt Q9H2K2); assay: biochemical; conditions: read-out: TNKS2 IC50; NAD+ consumption assay; > less than 50% inhibition at highest concentration, >> no inhibition
T4 sequence (Q9H2K2 1-1166): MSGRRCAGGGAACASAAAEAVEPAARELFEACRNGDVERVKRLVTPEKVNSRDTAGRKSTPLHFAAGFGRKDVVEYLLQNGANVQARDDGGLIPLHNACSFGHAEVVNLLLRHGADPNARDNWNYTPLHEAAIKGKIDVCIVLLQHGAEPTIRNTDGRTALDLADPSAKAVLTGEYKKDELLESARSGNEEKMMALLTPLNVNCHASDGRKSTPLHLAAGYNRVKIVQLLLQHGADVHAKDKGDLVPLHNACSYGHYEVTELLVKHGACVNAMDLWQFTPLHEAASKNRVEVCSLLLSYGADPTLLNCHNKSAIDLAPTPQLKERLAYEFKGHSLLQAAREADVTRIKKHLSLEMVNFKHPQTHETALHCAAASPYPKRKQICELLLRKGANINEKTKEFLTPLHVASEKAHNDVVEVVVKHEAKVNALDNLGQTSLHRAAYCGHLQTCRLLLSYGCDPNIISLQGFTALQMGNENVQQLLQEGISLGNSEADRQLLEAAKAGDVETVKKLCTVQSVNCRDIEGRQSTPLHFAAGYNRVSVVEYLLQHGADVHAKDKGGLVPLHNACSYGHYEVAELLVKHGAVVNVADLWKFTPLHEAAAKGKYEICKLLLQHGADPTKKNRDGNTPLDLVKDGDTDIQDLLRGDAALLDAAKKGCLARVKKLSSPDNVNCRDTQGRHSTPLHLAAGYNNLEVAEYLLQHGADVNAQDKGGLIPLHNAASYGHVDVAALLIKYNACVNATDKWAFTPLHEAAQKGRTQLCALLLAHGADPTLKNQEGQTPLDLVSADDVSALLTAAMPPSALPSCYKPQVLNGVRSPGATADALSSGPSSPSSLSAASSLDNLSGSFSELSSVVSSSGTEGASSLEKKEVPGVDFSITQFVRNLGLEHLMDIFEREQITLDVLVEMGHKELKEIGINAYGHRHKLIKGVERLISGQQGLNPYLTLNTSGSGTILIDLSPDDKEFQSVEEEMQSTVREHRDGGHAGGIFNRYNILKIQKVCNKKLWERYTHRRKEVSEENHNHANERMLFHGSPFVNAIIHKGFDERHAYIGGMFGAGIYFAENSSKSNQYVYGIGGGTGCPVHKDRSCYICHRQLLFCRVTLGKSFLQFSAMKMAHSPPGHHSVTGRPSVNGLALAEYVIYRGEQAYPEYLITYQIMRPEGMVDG
Method: as §1

[6] = PARP10 IC50, Tables 1-3 assay, > less than 50% inhibition, >> no inhibition at reported concentration, * value limited by protein concentration
[7] = read-out: PARP15 IC50, Tables 1-3 assay, > less than 50% inhibition, >> no inhibition at reported concentration, * value limited by protein concentration
[8] = Tables 1-3 assay, > less than 50% inhibition, >> no inhibition at reported concentration, * value limited by protein concentration, read-out: PARP10 IC50
[9] = PARP10 pIC50 ± SEM, Tables 1-3 assay

CC(=O)Nc1nnc2sc3cc(C)ccc3n12 [Compound 107, N-(7-methyl[1,2,4]triazolo[3,4-b][1,3]benzothiazol-3-yl)acetamide]
IC50 ([1]; PARP15 IC50, Tables 1-3 assay, > less than 50% inhibition, >> no inhibition at reported concentration, * value limited by protein concentration): 5200 nM
IC50 [2, 6]: 2600 nM

CCOc1ccc(OCC)c2c1sc1nncn12 [Compound 102, 5,8-Diethoxy[1,2,4]triazolo[3,4-b][1,3]benzothiazole]
inhibition of PARP10 (in words) [2]: potent PARP10 inhibitors
IC50 ([2]; PARP10 IC50, Tables 1-3 assay): 610 nM

Nc1nnc2sc3cc(Br)ccc3n12 [Compound 108, 7-Bromo[1,2,4]triazolo[3,4-b][1,3]benzothiazol-3-amine]
IC50 ([1]; PARP15 IC50, Tables 1-3 assay): 150 nM
IC50 ([1]; PARP15 pIC50 ± SEM, Tables 1-3 assay): 145 nM
IC50 ([2]; PARP10 IC50, Tables 1-3 assay): 60 nM

c1cnc2sc3nncn3c2c1 [Compound 101, [1,2,4]Triazolo[3′,4′:2,3][1,3]thiazolo[5,4-b]pyridine]
inhibition of PARP10 (in words) [2]: only weak inhibition
IC50 [2, 6]: 30000 nM

COc1ccc(OC)c2c1SC1=NNC(NC(=O)c3ccc(Cl)cc3)N12 (stereo not drawn) [Compound 29, 4-Chloro-N-(5,8-dimethoxy-2,3-dihydro[1,2,4]triazolo[3,4-b][1,3]benzothiazol-3-yl)benzamide]
IC50 [1, 7]: 7900 nM
IC50 [2, 8]: > 10000 nM

COc1ccc(OC)c2c1SC1=NNC(SC)N12 (stereo not drawn) [Compound 27, 5,8-Dimethoxy-3-(methylthio)-2,3-dihydro[1,2,4]triazolo[3,4-b][1,3]benzothiazole]
IC50 [1, 7]: > 10000 nM
IC50 [2, 8]: > 10000 nM

CCOc1ccc(OCC)c2c1sc1nnc(N)n12 [Compound 103, 5,8-Diethoxy[1,2,4]triazolo[3,4-b][1,3]benzothiazol-3-amine]
inhibition of PARP10 (in words) [2]: potent PARP10 inhibitors
IC50 ([2]; PARP10 IC50, Tables 1-3 assay): 72 nM

Oc1ccc(O)c2c1sc1nncn12 [Compound 17, [1,2,4]Triazolo[3,4-b][1,3]benzothiazol-5,8-diol]
IC50 [3]: 240 nM
toxicity (WST-1 assay) [4]: dose dependent toxicity
IC50 [5]: 3100 nM

COc1ccc(OCC(C)C)c2c1sc1nnc(N)n12 [Compound 110, 5-Isobutoxy-8-methoxy[1,2,4]triazolo[3,4-b][1,3]benzothiazol-3-amine]
IC50 [1]: 180 nM
IC50 ([2]; PARP10 IC50, Tables 1-3 assay): 80 nM
IC50 [2, 9]: 81.3 nM

COc1cc2sc3nnc(N)n3c2cc1OC [Compound 104, 6,7-Dimethoxy[1,2,4]triazolo[3,4-b][1,3]benzothiazol-3-amine]
IC50 ([1]; PARP15 IC50, Tables 1-3 assay): 170 nM
IC50 ([2]; PARP10 IC50, Tables 1-3 assay): 110 nM
IC50 [2, 9]: 107 nM
